Laboratory results from PubChem BioAssay (NCI).
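Assay format: 96-well plates, 48-hour exposure. TGI marks complete inhibition of growth.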

What was measured:
Assay in all cases: NCI tumour cell line growth inhibition, 48 h
786-0 renal = system: 786-0 renal
A498 renal = system: A498 renal
A549 NSCLC = system: A549 NSCLC
ACHN renal = system: ACHN renal
CAKI-1 renal = system: CAKI-1 renal
CCRF-CEM leukemia = system: CCRF-CEM leukemia
DLD-1 colon = system: DLD-1 colon
EKVX NSCLC = system: EKVX NSCLC
HCC-2998 colon = system: HCC-2998 colon
HCT-116 colon = system: HCT-116 colon
HCT-15 colon = system: HCT-15 colon
HL-60(TB) leukemia = system: HL-60(TB) leukemia
HOP-62 NSCLC = system: HOP-62 NSCLC
HOP-92 NSCLC = system: HOP-92 NSCLC
HT29 colon = system: HT29 colon
IGROV1 ovarian = system: IGROV1 ovarian
K-562 leukemia = system: K-562 leukemia
KM12 colon = system: KM12 colon
KM20L2 colon = system: KM20L2 colon
LXFL 529 NSCLC = system: LXFL 529 NSCLC
M14 melanoma = system: M14 melanoma
M19-MEL melanoma = system: M19-MEL melanoma
MALME-3M melanoma = system: MALME-3M melanoma
MOLT-4 leukemia = system: MOLT-4 leukemia
NCI-H23 lung = system: NCI-H23 lung
NCI-H460 lung = system: NCI-H460 lung
NCI-H522 lung = system: NCI-H522 lung
OVCAR-3 ovarian = system: OVCAR-3 ovarian
OVCAR-4 ovarian = system: OVCAR-4 ovarian
OVCAR-5 ovarian = system: OVCAR-5 ovarian
OVCAR-8 ovarian = system: OVCAR-8 ovarian
RXF 393 renal = system: RXF 393 renal
RXF-631 renal = system: RXF-631 renal
SF-268 CNS = system: SF-268 CNS
SF-295 CNS = system: SF-295 CNS
SF-539 CNS = system: SF-539 CNS
SK-MEL-2 melanoma = system: SK-MEL-2 melanoma
SK-MEL-28 melanoma = system: SK-MEL-28 melanoma
SK-MEL-5 melanoma = system: SK-MEL-5 melanoma
SK-OV-3 ovarian = system: SK-OV-3 ovarian
SN12C renal = system: SN12C renal
SNB-19 CNS = system: SNB-19 CNS
SNB-75 CNS = system: SNB-75 CNS
SNB-78 CNS = system: SNB-78 CNS
SR leukemia = system: SR leukemia
SW-620 colon = system: SW-620 colon
TK-10 renal = system: TK-10 renal
U251 CNS = system: U251 CNS
UACC-62 melanoma = system: UACC-62 melanoma
UO-31 renal = system: UO-31 renal
XF 498 CNS = system: XF 498 CNS
COLO 205 colon = system: COLO 205 colon
DMS 114 small cell lung = system: DMS 114 small cell lung
DMS 273 small cell lung = system: DMS 273 small cell lung
HOP-18 NSCLC = system: HOP-18 NSCLC
LOX IMVI melanoma = system: LOX IMVI melanoma
NCI-H226 lung = system: NCI-H226 lung
RPMI-8226 leukemia = system: RPMI-8226 leukemia
UACC-257 melanoma = system: UACC-257 melanoma
MCF7 breast = system: MCF7 breast
NCI/ADR-RES ovarian = system: NCI/ADR-RES ovarian
P388 leukemia = system: P388 leukemia
P388/ADR leukemia = system: P388/ADR leukemia
SN12K1 renal = system: SN12K1 renal

## O=C1C(=O)c2ccccc2C(O)=C1CN(CCCl)CCCl
786-0 renal
  TGI: > 100 µM
A498 renal
  TGI: > 100 µM
A549 NSCLC
  TGI: > 100 µM
ACHN renal
  TGI: > 100 µM
CAKI-1 renal
  TGI: > 100 µM
CCRF-CEM leukemia
  TGI: > 100 µM
DLD-1 colon
  TGI: > 100 µM
EKVX NSCLC
  TGI: > 100 µM
HCC-2998 colon
  TGI: > 100 µM
HCT-116 colon
  TGI: > 100 µM
HCT-15 colon
  TGI: > 100 µM
HL-60(TB) leukemia
  TGI: > 100 µM
HOP-62 NSCLC
  TGI: > 100 µM
HOP-92 NSCLC
  TGI: > 100 µM
HT29 colon
  TGI: > 100 µM
IGROV1 ovarian
  TGI: 77.9 µM
K-562 leukemia
  TGI: > 100 µM
KM12 colon
  TGI: > 100 µM
KM20L2 colon
  TGI: > 100 µM
LXFL 529 NSCLC
  TGI: > 100 µM
M14 melanoma
  TGI: > 100 µM
M19-MEL melanoma
  TGI: > 100 µM
MALME-3M melanoma
  TGI: > 100 µM
MOLT-4 leukemia
  TGI: > 100 µM
NCI-H23 lung
  TGI: > 100 µM
NCI-H460 lung
  TGI: > 100 µM
NCI-H522 lung
  TGI: > 100 µM
OVCAR-3 ovarian
  TGI: > 100 µM
OVCAR-4 ovarian
  TGI: > 100 µM
OVCAR-5 ovarian
  TGI: > 100 µM
OVCAR-8 ovarian
  TGI: > 100 µM
RXF 393 renal
  TGI: > 100 µM
RXF-631 renal
  TGI: > 100 µM
SF-268 CNS
  TGI: > 100 µM
SF-295 CNS
  TGI: > 100 µM
SF-539 CNS
  TGI: > 100 µM
SK-MEL-2 melanoma
  TGI: > 100 µM
SK-MEL-28 melanoma
  TGI: > 100 µM
SK-MEL-5 melanoma
  TGI: > 100 µM
SK-OV-3 ovarian
  TGI: > 100 µM
SN12C renal
  TGI: > 100 µM
SNB-19 CNS
  TGI: > 100 µM
SNB-75 CNS
  TGI: > 100 µM
SNB-78 CNS
  TGI: > 100 µM
SR leukemia
  TGI: > 100 µM
SW-620 colon
  TGI: > 100 µM
TK-10 renal
  TGI: > 100 µM
U251 CNS
  TGI: > 100 µM
UACC-62 melanoma
  TGI: > 100 µM
UO-31 renal
  TGI: > 100 µM
XF 498 CNS
  TGI: > 100 µM

## COc1cc(C(=O)C/C(CCC(=O)Nc2ccc(Cl)cc2C)=N/NC(=O)C(N)=O)ccc1O
786-0 renal
  TGI: > 100 µM
A498 renal
  TGI: > 100 µM
A549 NSCLC
  TGI: > 100 µM
ACHN renal
  TGI: > 100 µM
CAKI-1 renal
  TGI: > 100 µM
CCRF-CEM leukemia
  TGI: > 100 µM
COLO 205 colon
  TGI: > 100 µM
DLD-1 colon
  TGI: > 100 µM
DMS 114 small cell lung
  TGI: > 100 µM
DMS 273 small cell lung
  TGI: > 100 µM
EKVX NSCLC
  TGI: > 100 µM
HCC-2998 colon
  TGI: > 100 µM
HCT-116 colon
  TGI: > 100 µM
HCT-15 colon
  TGI: > 100 µM
HL-60(TB) leukemia
  TGI: > 100 µM
HOP-18 NSCLC
  TGI: > 100 µM
HOP-62 NSCLC
  TGI: > 100 µM
HOP-92 NSCLC
  TGI: > 100 µM
HT29 colon
  TGI: > 100 µM
IGROV1 ovarian
  TGI: > 100 µM
K-562 leukemia
  TGI: > 100 µM
KM12 colon
  TGI: > 100 µM
KM20L2 colon
  TGI: > 100 µM
LOX IMVI melanoma
  TGI: > 100 µM
LXFL 529 NSCLC
  TGI: > 100 µM
M14 melanoma
  TGI: > 100 µM
M19-MEL melanoma
  TGI: > 100 µM
MALME-3M melanoma
  TGI: > 100 µM
MOLT-4 leukemia
  TGI: > 100 µM
NCI-H226 lung
  TGI: > 100 µM
NCI-H23 lung
  TGI: > 100 µM
NCI-H460 lung
  TGI: > 100 µM
NCI-H522 lung
  TGI: > 100 µM
OVCAR-3 ovarian
  TGI: > 100 µM
OVCAR-4 ovarian
  TGI: > 100 µM
OVCAR-5 ovarian
  TGI: > 100 µM
OVCAR-8 ovarian
  TGI: > 100 µM
RPMI-8226 leukemia
  TGI: > 100 µM
SF-268 CNS
  TGI: > 100 µM
SF-295 CNS
  TGI: > 100 µM
SF-539 CNS
  TGI: > 100 µM
SK-MEL-2 melanoma
  TGI: > 100 µM
SK-MEL-5 melanoma
  TGI: > 100 µM
SK-OV-3 ovarian
  TGI: > 100 µM
SN12C renal
  TGI: > 100 µM
SNB-19 CNS
  TGI: > 100 µM
SNB-78 CNS
  TGI: > 100 µM
SW-620 colon
  TGI: > 100 µM
TK-10 renal
  TGI: > 100 µM
U251 CNS
  TGI: > 100 µM
UACC-257 melanoma
  TGI: > 100 µM
UACC-62 melanoma
  TGI: > 100 µM
UO-31 renal
  TGI: > 100 µM
XF 498 CNS
  TGI: > 100 µM

## CC12CCC(C(=O)N3CC=CCC3)(OC1=O)C2(C)C (configuration not stated)
A498 renal
  TGI: > 100 µM
A549 NSCLC
  TGI: > 100 µM
CAKI-1 renal
  TGI: > 100 µM
CCRF-CEM leukemia
  TGI: > 100 µM
COLO 205 colon
  TGI: > 100 µM
DLD-1 colon
  TGI: > 100 µM
DMS 114 small cell lung
  TGI: > 100 µM
DMS 273 small cell lung
  TGI: > 100 µM
EKVX NSCLC
  TGI: > 100 µM
HCC-2998 colon
  TGI: > 100 µM
HCT-116 colon
  TGI: > 100 µM
HCT-15 colon
  TGI: > 100 µM
HL-60(TB) leukemia
  TGI: > 100 µM
HOP-18 NSCLC
  TGI: > 100 µM
HOP-62 NSCLC
  TGI: > 100 µM
HOP-92 NSCLC
  TGI: > 100 µM
HT29 colon
  TGI: > 100 µM
IGROV1 ovarian
  TGI: > 100 µM
K-562 leukemia
  TGI: > 100 µM
KM12 colon
  TGI: > 100 µM
KM20L2 colon
  TGI: > 100 µM
LOX IMVI melanoma
  TGI: > 100 µM
M19-MEL melanoma
  TGI: > 100 µM
MALME-3M melanoma
  TGI: > 100 µM
MCF7 breast
  TGI: > 100 µM
MOLT-4 leukemia
  TGI: > 100 µM
NCI-H226 lung
  TGI: > 100 µM
NCI-H23 lung
  TGI: > 100 µM
NCI-H460 lung
  TGI: > 100 µM
NCI-H522 lung
  TGI: > 100 µM
NCI/ADR-RES ovarian
  TGI: > 100 µM
OVCAR-3 ovarian
  TGI: > 100 µM
OVCAR-4 ovarian
  TGI: > 100 µM
OVCAR-5 ovarian
  TGI: > 100 µM
OVCAR-8 ovarian
  TGI: > 100 µM
P388 leukemia
  TGI: > 100 µM
P388/ADR leukemia
  TGI: > 100 µM
RPMI-8226 leukemia
  TGI: > 100 µM
RXF 393 renal
  TGI: > 100 µM
SF-268 CNS
  TGI: > 100 µM
SF-295 CNS
  TGI: > 100 µM
SF-539 CNS
  TGI: > 100 µM
SK-MEL-2 melanoma
  TGI: > 100 µM
SK-MEL-28 melanoma
  TGI: > 100 µM
SK-MEL-5 melanoma
  TGI: > 100 µM
SK-OV-3 ovarian
  TGI: > 100 µM
SN12C renal
  TGI: > 100 µM
SN12K1 renal
  TGI: > 100 µM
SNB-19 CNS
  TGI: > 100 µM
SNB-75 CNS
  TGI: > 100 µM
SNB-78 CNS
  TGI: > 100 µM
SW-620 colon
  TGI: > 100 µM
U251 CNS
  TGI: > 100 µM
UACC-257 melanoma
  TGI: > 100 µM
UACC-62 melanoma
  TGI: > 100 µM
UO-31 renal
  TGI: > 100 µM
XF 498 CNS
  TGI: > 100 µM
